Reference: patent US5202338A, “Dihydroquinoline derivatives, pharmaceutical compositions and methods of use of dihydroquinoline derivatives as modulators of the arachidonic acid cascade” (priority 1990, dated 1993)
Counter-ions that a name gives are not always drawn.

What was measured:
[1] = tested on: extrinsic bronchial asthma; test: Investigation of MTDQ in vivo in steroid-dependent asthma patients; parameters: species or system human
Experimental: Four women and two men (with an average age of 41 years); between 17 and 56 years participated in this study, who suffered from extrinsic bronchial asthma, and had earlier been treated with at least 20 mg/day of prednisolone (11,17,21-trihydroxypregn-4-ene-3,20-dione) or with an equivalent steroidal hormone since 2 to 15 years of age. During the experimental period, the patients were kept on the treatment commonly used for bronchial asthma, except steroidal hormones.
On admission, their respiratory function characteristics were as follows:
Their sputum became more dilute and easy to eliminate. On auscultation, a soft vesicular respiration was again observed over their lungs. The X-ray picture of the lungs was in agreement with the clinical improvement.
On the fifteenth day of treatment, the respiratory functions were as follows:
The experiment described in Example 10 was repeated, except that daily 300 mg of allopurinol (Milurit®, EGIS Pharmaceutical Works) were daily administered simultaneously with the start of the MTDQ administration. […] In the case of a prolonged treatment, the daily amount of MTDQ could be decreased from 2500 mg to 1000-1200 mg by using this combination.

[2] = tested on: TXB2 formation in human leukocyte homogenate; test: TXB2 formation from arachidonic acid in human leukocyte homogenate (RIA); type: biochemical; conditions: DMSO control 1.95 ± 0.31
Experimental: The transformation of arachidonic acid to thromboxane B2 and leukotriene B4 in a human leukocyte homogenate was measured by means of the method published by Tetason, J. E. et al., Brit. J. Pharmacol., 1988 94:528-529, as follows: Fresh blood, from donors who had not ingested aspirin or other drugs for at least 14 days previously, was collected, with EDTA (1.2 mgml^-1) as anticoagulant; erythrocytes were sedimented by addition of 2% methyl cellulose (7.5 ml 100^-1 blood) and incubation for 40 minutes at 37° C. The supernatant containing leukocytes and platelets was removed, diluted two fold with sodium phosphate-buffered saline (0.9% NaCl, pH 7.2, 20 mM phosphate) and centrifuged for 10 minutes at 150 g. The supernatant, containing platelets, was removed and the leukocyte pellet resuspended in 50 ml of ice-cold 0.82% NH4 Cl containing 5 mM KCl (brought to pH 7.4 with 4.4% NaHCO3). This procedure lysed any remaining erythrocytes during 10 minutes incubation on ice. The leukocyte suspension was then centrifuged again (10 minutes, 150 g) and the pellet resuspended in 25 ml sodium phosphate buffer (50 mM, pH 7.0) containing EDTA (1 mM). […]
DMSO was added. […] Reaction products, TXB2 and LTB4, were measured by specific radioimmunoassay (RIA) as published by Salmon, J. A. Prostaglandins, 1978 15: 383-397; and Salmon, J. A. et al., Prostaglandins, 1982, 24:225-235. […]

[3] = Acute toxicity study and determination of LD50; type: in vivo; conditions: rat, in vivo; oral, Wistar rats of both sexes
Experimental: (§1) The Example was carried out in Wistar rats (Lati, Budapest) of both sexes weighing 150-160 g each. Doses of L90 were measured by an analytical balance, for each animal and suspended in 2 ml of paraffine oil while mixing at 60° C. Suspension was then cooled to room temperature and administered through a gastric tube. Animals were fed with standard rat feed (Lati, Budapest) and received water ad libitum. They were kept at a room temperature of 23 to 25° C. The relative humidity of room air amounted to 50-70 percent. Three study groups of animals were formed.
(§2) The animals received a single dose of L90 amounting to 1 g/kg body weight.
(§3) The animals received a single dose of L90 amounting to 5 g/kg body weight.
(§4) The animals received a single dose of 2 ml of paraffine oil (control group).
(§5) Animals were carefully observed on 10 subsequent days, after treatment. On day 11, the animals were sacrificed in general anesthesia. Autopsy of all animals was performed followed by the macroscopic examination of all organs.

Wistar rats = test: Acute toxicity study and determination of LD50; type: in vivo
Experimental: as §1, §2, §3, §4, §5

Erlich ascites tumor = test: Tumor-inhibiting effect on the Erlich ascites tumor; type: in vivo, mice
Experimental: A daily oral dose of 150 mg/kg of body-weight of the compound prepared in Example 1 was administered to LATI-inbred CFLP male mice weighing 20 to 22 g each for 5 days, then 2×10^6 of Erlich ascites tumour cells were implanted under sterile conditions. Thereafter, the drug-treatment was continued and an examination was carried out on the 16th day following the implantation. An 80% inhibition was observed on the 17th day. The percentage of inhabitation was determined as described by Zs. Pollak in the dissertation entitled "Development of a Radiosensitizing Antioxidant and Use Thereof in the Oncological Practice" pages 44 to 45 and 76 to 82, as cited above.

gastric mucosa = test: Protection of the gastric mucosa against ethanol; type: in vivo, rats; conditions: anhydrous ethanol + 100 mg/kg by gastric tube; ethanol only 21±0.31%
Experimental: The protection of the gastric mucosa against the effect of ethanol was investigated. Ten CFY male rats weighing 200 to 220 g each were starved for 18 hours while allowing them to consume water ad libitum. Then, a dose of 50 or 100 mg/kg of body weight of the compound prepared in Example 1 was administered in such a way that the active agent had previously homogenized in an 1% aqueous methylcellulose solution for 1 minute. The substance was administered through a gastric tube. After 30 minutes, 1 ml of anhydrous ethanol each was orally given to the animals. Five minutes later the animals were decapitated under a general anaesthesia, their stomachs were removed, opened along the large curvature and washed with water. Thereafter the stomachs were stretched out and photographed. The alterations found on the gastric mucosa were observed by planimetry. The lesions were given as percentage of the whole surface.

[4] = tested on: hyperoxia (95% oxygen and 5% CO2); test: Hyperoxia-inhibiting effect; type: in vivo, rats
Experimental: CFY rats with an average body weight of 250 g each, belonging to both sexes were kept in an atmosphere of 95% oxygen and 5% CO2. Three treatment groups were formed.
Group 2 (n=25): Hyperoxia was induced as described for Group 1, however, 20 mg/kg body weight/day i.v. Dexamethasone (steroid hormone preparation) was administered during the hyperoxia period. […] Autopsy and histological examinations were performed on the animals died and on the animals sacrificed on the 35th day.
Group 3 (n=25): Hyperoxia was induced as in the Groups mentioned above, but during the period of hyperoxia 65 mg/kg body weight of the compound according to Example 4 was administered i.v. The rate of death amounted to 4% (1 animal).

cytochrome C and P 450 = test: Cytochrome C and P450 activities in atherogenic-diet rats; type: in vivo; conditions: atherosclerosis induced by atherogenic diet in rats
Excerpt: During model-experiments of atherosclerosis induced by atherogenic diet in rats, the pathologic increase of cythochrome C and P 450 enzyme activities is to be observed. This is disadvantageous because these enhanced enzyme activities induce tissular lipid peroxidation, involving all of its well known untoward consequences. As the first step of this chain reaction superoxyde - anion radical is formed from molecular oxygen. Laitar however initiate further few radical reactions.

For `CC1=CC(C)(C)Nc2ccc(Cc3ccc4c(c3)C(C)=CC(C)(C)N4)cc21` [MTDQ, 6,6'-methylene-bis(2,2,4-trimethyl-1,2-dihydroquinoline)], the “Omission of steroidal hormone” value ([1]; MTDQ combined with 300 mg allopurinol daily) was “the steroidal hormone could immediately be omitted”, the “Daily amount of MTDQ needed in prolonged treatment” value ([1]; combined with 300 mg allopurinol daily, decreased from 2500 mg) was 1000 to 1200 mg and the “Partial oxygen pressure in the arterial blood” value ([1]; fifteenth day of treatment, MTDQ 25 mg/kg orally daily, steroid stopped on day 4) was 10.9±0.45 kPa. The Forced expiratory volume ([1]; fifteenth day of treatment, MTDQ 25 mg/kg orally daily, normal value 2.5 to 2.8) was 2.06 ± 0.8 L, the Forced vital capacity ([1]; fifteenth day of treatment, MTDQ 25 mg/kg orally daily, normal value 3.5 to 4) was 3.78 ± 0.33 L and the Clinical improvement ([1]; fifth day, MTDQ 25 mg/kg orally daily) was “the patients became attack-free”.

For `CC(=O)C(c1ccc2c(c1)C(C)=CC(C)(C)N2)c1ccc2c(c1)C(C)=CC(C)(C)N2` [Example 1, 6,6'-acetylmethine-bis(2,2,4-trimethyl-1,2-dihydroquinoline)], the TXB2 ([2]; 20/μM compound) was 0.68 ± 0.14, the TXB2 ([2]; 100/μM compound) was 0.53 ± 0.08 and the LD50 at 240 h [3] was greater than 5000 mg/kg. For the same molecule, the Survival and observations (Wistar rats; single oral dose 1 g/kg, day 11) was “all rats were alive”, the Mortality (Wistar rats; single oral dose 5 g/kg, n=8, 10 days of observation) was “Two rats belonging to Group 2 died on day 8” and the Tumor inhibition (Erlich ascites tumor; 150 mg/kg oral daily, CFLP male mice, 17th day) was 80%. The Ascites ml. (Erlich ascites tumor; 150 mg/kg, control 15.06 + 2.85) was 3.95 + 0.62 ml, the number of cells (Erlich ascites tumor; 150 mg/kg, control 96.5 × 10^7 /ml) was 7.33e+07 mL⁻¹ and the “Gastric mucosa lesions as percentage of the whole surface” value (gastric mucosa) was 4.2±0.51%.

With `C[C@@H]1C[C@H]2[C@@H]3CCC4=CC(=O)C=C[C@]4(C)[C@@]3(F)[C@@H](O)C[C@]2(C)[C@@]1(O)C(=O)CO` [Dexamethasone] the Rate of survival ([4]; 20 mg/kg/day i.v. during hyperoxia) was “did not improve”, the “PGF1C and TXB2 concentrations” value ([4]; 20 mg/kg/day i.v., compared to physiological parameters) was “significantly lower” and the “Pathological lesions at autopsy and histology” value ([4]; 20 mg/kg/day i.v., compared with Group 1) was “number and severity of the pathological lesions were found less than in Group 1”.

In the case of `CC(C)(S)[C@@H](N)C(=O)O` [D-Pencillamino], the “Normalization of increased Cytochrome C and P450 activities” value (cytochrome C and P 450) is reported as “did not exert this effects”.

With `O=C1O[C@H]([C@@H](O)CO)C(O)=C1O` [Vitamin C] the “Normalization of increased Cytochrome C and P450 activities” value (cytochrome C and P 450) was “did not exert this effects”.

With `CC1(C)C=C(CS(=O)(=O)O)c2ccccc2N1` [2,2-dimethyl-4-methane-sulfonic acid salt-1,2-dihydroquinoline] the “Normalization of increased Cytochrome C and P450 activities” value (cytochrome C and P 450) was “did not exert this effect either”.

In the case of `NC(=O)c1nc[nH]c1N` [4-amino-5-imidozolcarboxidamide], the “Normalization of increased Cytochrome C and P450 activities” value (cytochrome C and P 450) is reported as “did not exert this effects”.

For `Oc1cc(O)c2c(c1)O[C@H](c1ccc(O)c(O)c1)[C@@H](O)C2` [(+) --Cyanidol], the “Normalization of increased Cytochrome C and P450 activities” value (cytochrome C and P 450) was “did not exert this effects”.

With Vitamin A the “Normalization of increased Cytochrome C and P450 activities” value (cytochrome C and P 450) was “did not exert this effects”.

With `CC(=O)C(c1ccc2c(c1)C(CS(=O)(=O)O)=CC(C)(C)N2)c1ccc2c(c1)C(CS(=O)(=O)O)=CC(C)(C)N2` [Example 4, sodium salt of 6,6'-acetylmethine-bis(2,2-dimethyl-1,2-dihydroquinoline-4-methanesulfonicacid)] the Rate of death ([4]; 65 mg/kg i.v. during hyperoxia, untreated 50% died) was 4% and the “Pathological lesions at autopsy and histology” value ([4]; 65 mg/kg i.v., animals sacrificed on 35th day) was “no pathological lesions were detected”.

With `CC1=CC(C)(C)Nc2ccccc21` [2,2,4-trimethyl-1,2-dihydroquinoline] the “Normalization of increased Cytochrome C and P450 activities” value (cytochrome C and P 450) was “did not exert this effect either”.
